Here are results for 2 compounds from ChEMBL document CHEMBL5375942, “Discovery of a Potent Chloroacetamide GPX4 Inhibitor with Bioavailability to Enable Target Engagement in Mice, a Potential Tool Compound for Inducing Ferroptosis In Vivo” (J Med Chem, 2023).

Molecules are shown by their SMILES. Activity calls are given as the source filed them. No cut-off for these calls is given here. A value given as a limit tells only on which side of the number the result lay.

In series [1] the test system is NCI-H1703. As to the kind of experiment: Induction of ferroptosis in human NCI-H1703 cells assessed as cell viability incubated for 72 hrs by CellTiter-Glo luminescent cell viability assay. Conditions: NCI-H1703, 72 h. The class given is functional, cell-based.
Series [2] can be described thus: Plasma clearance in iv dosed mouse. The class given is ADME, organism-based.
Series [3] is described as follows: Metabolic stability in mouse liver microsomes assessed as unbound intrinsic clearance. In kind it is ADME, Microsome.
The nature of series [4]: Metabolic stability in human liver microsomes assessed as unbound intrinsic clearance. The class given is ADME, Microsome.
Series [5] can be described thus: Stability in mouse plasma assessed as half life. The class given is ADME, cell-free.
Series [6] can be described thus: Stability in human plasma assessed as half life. The class given is ADME, cell-free.
A short description of series [7]: Aqueous solubility of the compound at pH 7. In kind it is physicochemical.
Series [8] in a line: Aqueous solubility of the compound at pH 1. In kind it is physicochemical.
Series [9] can be described thus: Half life in CB17 SCID-Beige mouse subcutaneously inoculated with WSUDLCL2 cells at 100 mg/kg, ip. In kind it is ADME, organism-based. Conditions: in vivo.
Series [10] is described as follows: Cmax in CB17 SCID-Beige mouse subcutaneously inoculated with WSUDLCL2 cells at 100 mg/kg, ip. The class given is ADME, organism-based. The arrangement: dose 100 mg/kg, route ip. The conditions noted are these: in vivo.
Series [11] is described as follows: AUC in CB17 SCID-Beige mouse subcutaneously inoculated with WSUDLCL2 cells at 100 mg/kg, ip. In kind it is ADME, organism-based. Conditions: in vivo. Further details: dose 100 mg/kg, route ip.
A short description of series [12]: Half life in CB17 SCID-Beige mouse subcutaneously inoculated with WSUDLCL2 cells at 100 mg/kg, sc. In kind it is ADME, organism-based. The conditions noted are these: in vivo.
Series [13] is described as follows: Cmax in CB17 SCID-Beige mouse subcutaneously inoculated with WSUDLCL2 cells at 100 mg/kg, sc. In kind it is ADME, organism-based. Further details: dose 100 mg/kg, route sc. Conditions: in vivo.
Series [14] in a line: AUC in CB17 SCID-Beige mouse subcutaneously inoculated with WSUDLCL2 cells at 100 mg/kg, sc. The conditions noted are these: in vivo. The class given is ADME, organism-based. Further details: dose 100 mg/kg, route sc.
For series [15], the system named is HT-1080. As to the kind of experiment: Induction of ferroptosis in GPX4-dependent human HT-1080 cells assessed as cell viability measured immediately after addition of compound by time-course cell viability assay. In kind it is functional, cell-based.
Series [16] relates to HT-1080. As to the kind of experiment: Induction of ferroptosis in GPX4-dependent human HT-1080 cells assessed as cell viability incubated for […] by time-course cell viability assay. In kind it is functional, cell-based.
The test system of series [17] is HT-1080. As to the kind of experiment: Induction of ferroptosis in GPX4-dependent human HT-1080 cells assessed as cell viability incubated for 3 hrs by time-course cell viability assay. The class given is functional, cell-based. The conditions noted are these: HT-1080, 3 h.
The test system of series [18] is HT-1080. The series is described as follows: Induction of ferroptosis in GPX4-dependent human HT-1080 cells assessed as cell viability incubated for 6 hrs by time-course cell viability assay. The class given is functional, cell-based. Conditions: HT-1080, 6 h.
In series [19] the test system is HT-1080. The series is described as follows: Induction of ferroptosis in GPX4-dependent human HT-1080 cells assessed as cell viability incubated for […] in presence of 40% human plasma by time-course cell viability assay. The class given is functional, cell-based.
Series [20] concerns HT-1080. The series is described as follows: Induction of ferroptosis in GPX4-dependent human HT-1080 cells assessed as cell viability incubated for 3 hrs in presence of 40% human plasma by time-course cell viability assay. The class given is functional, cell-based. Conditions: HT-1080, 3 h.
Series [21] deals with HT-1080. As to the kind of experiment: Induction of ferroptosis in GPX4-dependent human HT-1080 cells assessed as cell viability incubated for 6 hrs in presence of 40% human plasma by time-course cell viability assay. The class given is functional, cell-based. The conditions noted are these: HT-1080, 6 h.
Series [22] deals with HT-1080. As to the kind of experiment: Induction of ferroptosis in GPX4-dependent human HT-1080 cells assessed as cell viability incubated for 24 hrs in presence of 40% human plasma by time-course cell viability assay. The conditions noted are these: HT-1080, 24 h. In kind it is functional, cell-based.
Series [23] has as its target Phospholipid hydroperoxide glutathione peroxidase GPX4 (Mus musculus) (UniProt O70325). The series is described as follows: Target engagement at GPX4 in mouse 4T1 cells assessed as mass change between covalently bound protein and unbound protein at 0.01 to 1 ug/ml measured after 2 hrs by Western blot analysis. In kind it is cell-based. Conditions: dose 0.01-1 µg/ml.

In series [24] the test system is WSUDLCL2. As to the kind of experiment: Induction of ferroptosis in human WSUDLCL2 cells assessed as cell viability incubated for 72 hrs by CellTiter-Glo luminescent cell viability assay. In kind it is functional, cell-based.
Series [25] concerns WSUDLCL2. As to the kind of experiment: Induction of ferroptosis in human WSUDLCL2 cells assessed as cell viability incubated for 72 hrs in presence of ferrostatin-1 by CellTiter-Glo luminescent cell viability assay. In kind it is functional, cell-based.
The test system of series [26] is WSUDLCL2. As to the kind of experiment: Induction of ferroptosis in human WSUDLCL2 cells assessed as cell viability incubated for 72 hrs in presence of liproxstatin-1 by CellTiter-Glo luminescent cell viability assay. In kind it is functional, cell-based.
Series [27] concerns NCI-H1703. As to the kind of experiment: Induction of ferroptosis in human NCI-H1703 cells assessed as cell viability incubated for 72 hrs in presence of ferrostatin-1 by CellTiter-Glo luminescent cell viability assay. The class given is functional, cell-based. The conditions noted are these: NCI-H1703, 72 h.
The test system of series [28] is HT-1080. The series is described as follows: Induction of ferroptosis in GPX4-dependent human HT-1080 cells assessed as cell viability incubated for 24 hrs by time-course cell viability assay. In kind it is functional, cell-based. The conditions noted are these: HT-1080, 24 h.
Series [29] concerns the target Phospholipid hydroperoxide glutathione peroxidase GPX4 (Mus musculus) (UniProt O70325). The series is described as follows: In vivo inhibition of GPX4 in SCID/Beige mouse assessed as increase in malondialdehyde level in kidney homogenate at 100 to 200 mg/kg, ip by TBAR assay. The class given is functional, organism-based. The conditions noted are these: dose 100-200 mg/kg.

Series [30] has the same target. As to the kind of experiment: In vivo inhibition of GPX4 in SCID/Beige mouse assessed as increase in malondialdehyde level in plasma at 100 to 200 mg/kg, ip by TBAR assay. The conditions noted are these: dose 100-200 mg/kg. The class given is functional, organism-based.
The target is the same in series [31]. The series is described as follows: In vivo inhibition of GPX4 in SCID/Beige mouse assessed as fold increase in PTGS2 transcription in kidney homogenate at 100 to 200 mg/kg, ip by qPCR analysis relative to vehicle treated control. Conditions: dose 100-200 mg/kg. In kind it is functional, organism-based.
For series [32], the system named is WSUDLCL2. The series is described as follows: Effect on tumor volume in human WSUDLCL2 cells subcutaneously inoculated in CB17 SCID-Beige mouse tumor model at 50 to 100 mg/kg, ip measured upto day 20. In kind it is functional, organism-based. The conditions noted are these: dose 50-100 mg/kg.
Series [33] has as its system WSUDLCL2. As to the kind of experiment: In vivo target engagement at GPX4 in human WSUDLCL2 cells subcutaneously inoculated in CB17 SCID-Beige mouse assessed as target engagement in tumor at 50 to 100 mg/kg, ip measured upto day 20 by Western blot analysis. The class given is functional, organism-based. The conditions noted are these: dose 50-100 mg/kg.

Chain of Phospholipid hydroperoxide glutathione peroxidase GPX4 (Mus musculus) (O70325 whole entry): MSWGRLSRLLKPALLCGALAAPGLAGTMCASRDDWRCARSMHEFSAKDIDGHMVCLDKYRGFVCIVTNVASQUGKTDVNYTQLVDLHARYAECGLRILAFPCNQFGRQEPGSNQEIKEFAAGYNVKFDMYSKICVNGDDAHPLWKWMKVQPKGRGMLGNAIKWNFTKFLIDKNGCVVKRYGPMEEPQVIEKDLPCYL

Regarding `COC(=O)c1ccc([C@H]2c3[nH]c4ccccc4c3C[C@H](C(=O)OC)N2C(=O)CCl)cc1`, the 50% effective concentration (EC50) was determined as 80 nM in the series with NCI-H1703 [1]; 590 nM in the series on HT-1080 [15]; 160 nM with HT-1080 [16]; 80 nM in the series on HT-1080 [17]; 60 nM with HT-1080 [18]; 1420 nM with HT-1080 [19]. In addition, the EC50 in the series with HT-1080 [20] amounted to 1010 nM; in the series on HT-1080 [21] it was 750 nM; in the series on HT-1080 [22] it was 880 nM. In series [2], the clearance is 478 mL/min/kg. Moreover, the CL free in series [3] worked out at 8720 mL/min/kg; in [4] it was 195 mL/min/kg. Also, the half-life in [5] is 0.167 h; in [6] it was 14.6 h; in series [9], 1.8 h; in [12], 4.1 h. Further, the solubility in series [7] and in [8] was below 0.8 µM in each case. Further, the maximum concentration (Cmax) in series [10] came out at 650 ng/mL; in series [13], 480 ng/mL. Also, the AUC was determined as 2.79 µg/h/mL in series [11] and 2.67 µg/h/mL in series [14]. Also, the outcome (in series [23]; in the series on WSUDLCL2 [24]) was Active. For the same compound, the outcome with WSUDLCL2 [25] and with WSUDLCL2 [26] was inactive.

With `COC(=O)[C@H]1Cc2c([nH]c3ccccc23)[C@H](c2ccc(S(C)(=O)=O)cc2)N1C(=O)CCl`, the half-maximal effective concentration (EC50) with NCI-H1703 [1] was 117 nM; in the series on NCI-H1703 [27] it was 4740 nM; in the series with HT-1080 [16], 850 nM; with HT-1080 [17] it was 270 nM; in the series with HT-1080 [18], 170 nM; in the series with HT-1080 [28], 90 nM. Further, the EC50 stood at 1260 nM with HT-1080 [19], 770 nM with HT-1080 [20], 490 nM with HT-1080 [21] and 520 nM in the series on HT-1080 [22]. For the same compound, the result (in series [29]; in series [30]; in series [31]; in the series on WSUDLCL2 [24]; in the series with WSUDLCL2 [33]) was Active. Also, the fold change (FC) in series [31] turned out to be 8. Further, the outcome in the series on WSUDLCL2 [25], in the series on WSUDLCL2 [26] and in the series with WSUDLCL2 [32] was inactive.
